Common to all, as to test: NCI tumour cell line growth inhibition, 48 h
Assay [1] relates to 786-0.
The subject of assay [2] is A549.
Assay [3] relates to ACHN.
Assay [4] deals with BT-549.
For assay [5], the system named is CAKI-1.
Assay [6] deals with DU-145.
Assay [7] deals with HT-29.
The subject of assay [8] is MDA-N.
Assay [9] relates to Malme-3M.
The subject of assay [10] is OVCAR-3.
The subject of assay [11] is OVCAR-5.
Assay [12] concerns OVCAR-8.
The test system of assay [13] is RPMI-8226.
For assay [14], the system named is RXF 393.
In assay [15] the test system is SF-268.
The test system of assay [16] is SF-295.
The subject of assay [17] is SNB-19.
Assay [18] concerns UACC-62.
The subject of assay [19] is MDA-MB-231.
The subject of assay [20] is U-251.

Structures are written as SMILES.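 In this assay, cells in 96-well plates receive the compound at five concentrations for 48 hours. Endpoints are linearly interpolated between the surrounding concentrations. The concentration for 50% growth inhibition is given as GI50.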 Calls of active or inactive are those of the source. Rule as the data show it: active = GI50 up to about 1.1 µM and inactive = higher.

With `COc1cc(S(=O)(=O)Nc2ccc(-c3csc(N4C(=O)C(Cl)C4c4ccccc4)n3)cc2)ccc1Cl` (stereo not drawn), the GI50 was 19.2 µM (inactive) in assay [1]; > 100 µM (inactive) in assay [2]; 60 µM (inactive) in assay [3]; 26.9 µM (inactive) in assay [4]; > 100 µM (inactive) in [5]; 16 µM (inactive) in assay [6]. For the same compound, the GI50 in assay [7] is > 100 µM (inactive); in [8], 37.5 µM (inactive); in assay [9], 22.3 µM (inactive); in [10] it was > 100 µM (inactive); in [11] it was 47.4 µM (inactive); in assay [12], 20.1 µM (inactive). Also, the GI50 in assay [13] is 31.4 µM (inactive); in assay [14] it was 10.7 µM (inactive); in assay [15], 33.9 µM (inactive); in assay [16], > 100 µM (inactive); in assay [17] it was > 100 µM (inactive); in assay [18], 22.9 µM (inactive).
Take `O=C1CSC2(CC(/C=C/C=C/c3ccccc3)=NN2c2cccc(S(=O)(=O)O)c2)N1c1nc2ccccc2s1` (stereo not drawn): the GI50 in assay [1] is 40.2 µM (inactive); in assay [2] it was 50.8 µM (inactive); in [3], 40.3 µM (inactive); in [4], 51.5 µM (inactive); in assay [5], 54.5 µM (inactive); in assay [7], 64.3 µM (inactive). Besides, the GI50 in [19] was 31.3 µM (inactive); in [8] it was 52 µM (inactive); in assay [11], > 100 µM (inactive); in assay [12] it was 42.1 µM (inactive); in [13], 21.2 µM (inactive); in assay [14] it was > 100 µM (inactive). Besides, the values for the GI50 in assay [17], in [20] and in assay [18] were 36.4 µM (inactive), 24 µM (inactive) and 35.2 µM (inactive), respectively.
With `COc1ccc(N2C(=O)C3ON(Cc4ccc(CC(N)=O)cc4)C(c4c5ccccc5c(C)c5ccccc45)C3C2=O)cc1` (stereo not drawn), the GI50 is 30 µM (inactive) in assay [1]; 29.8 µM (inactive) in [2]; 21.5 µM (inactive) in [3]; 30.1 µM (inactive) in assay [4]; 20.7 µM (inactive) in [5]; 20.9 µM (inactive) in assay [6]. The GI50 was 12.9 µM (inactive) in [7]; 36.5 µM (inactive) in assay [19]; 22.3 µM (inactive) in assay [8]; 35.8 µM (inactive) in assay [9]; 25.4 µM (inactive) in assay [10]; 27 µM (inactive) in assay [11]. Further, the GI50 in assay [12] was 27 µM (inactive); in assay [14], 14.2 µM (inactive); in assay [15] it was 38.7 µM (inactive); in assay [16], 22 µM (inactive); in assay [17], 27.9 µM (inactive); in assay [20], 22.8 µM (inactive). For the same compound, in [18], the GI50 was 30.7 µM (inactive).
On to `O=C(C#Cc1ccccc1)N1CCCCC1`, for which the GI50 was 14.4 µM (inactive) in [1]; 76.9 µM (inactive) in [2]; 58.1 µM (inactive) in assay [3]; > 100 µM (inactive) in assay [4]; 83.9 µM (inactive) in assay [5]; 55.8 µM (inactive) in assay [6]. For the same compound, the GI50 in [7] was 29 µM (inactive); in assay [19] it was 72.3 µM (inactive); in assay [8], 86.5 µM (inactive); in assay [9], 40 µM (inactive); in assay [10], 81.7 µM (inactive); in assay [11] it was > 100 µM (inactive). The GI50 in assay [12] is 48.6 µM (inactive); in assay [13] it was 62.5 µM (inactive); in assay [15], 90.2 µM (inactive); in assay [16], > 100 µM (inactive); in assay [17], > 100 µM (inactive); in assay [20] it was 84.1 µM (inactive). Moreover, the GI50 in [18] was > 100 µM (inactive).
On to `CCN(C(=O)N[C@@H](Cc1ccccc1)C(=O)N[C@@H](CC(C)C)C(=O)OC)c1ccccc1`, for which the GI50 in assay [1] was 19.8 µM (inactive); in assay [2], 30.5 µM (inactive); in assay [3], 21.3 µM (inactive); in [4], 57.1 µM (inactive); in assay [5], 32.6 µM (inactive); in [6] it was 17.3 µM (inactive). For the same compound, the GI50 in assay [7] is 14.3 µM (inactive); in assay [19], 55.7 µM (inactive); in assay [8] it was 69.3 µM (inactive); in [10], 26.5 µM (inactive); in [11], 23.2 µM (inactive); in assay [12], 15.3 µM (inactive). In addition, the GI50 in assay [13] is 20.1 µM (inactive); in assay [14], 19.1 µM (inactive); in assay [16], 26.5 µM (inactive); in [17], 77.6 µM (inactive); in assay [20], 25.9 µM (inactive); in assay [18] it was 17.7 µM (inactive).
Turning to `CCCCC1(O)CC2CC1C(C)C2(C)C` (stereo not drawn), the GI50 in assay [1], in [2], in assay [4], in assay [5], in [6] and in assay [7] was > 100 µM (inactive) throughout. The GI50 in assay [19], in assay [8], in [9], in assay [10], in assay [11] and in assay [12] was > 100 µM (inactive) in each case. The GI50 in [13] is 54.6 µM (inactive); in assay [14], > 100 µM (inactive); in assay [15], > 100 µM (inactive); in assay [16], > 100 µM (inactive); in assay [17], > 100 µM (inactive); in [20], > 100 µM (inactive). For the same compound, in [18], the GI50 is > 100 µM (inactive).
On to `COC(=O)C1CCN(C(=O)OC(C)(C)C)CC1`, for which the GI50 in [1] is > 100 µM (inactive); in assay [2], > 100 µM (inactive); in assay [3], > 100 µM (inactive); in [4], 0.993 µM (active); in assay [5], > 100 µM (inactive); in assay [6] it was > 100 µM (inactive). Also, the GI50 in assay [7], in assay [19], in assay [8], in assay [9], in [10] and in assay [11] was > 100 µM (inactive) each time. The GI50 in assay [12], in assay [13], in [15], in [16], in [17] and in assay [20] was > 100 µM (inactive) throughout. Further, the GI50 in [18] was > 100 µM (inactive).
Consider `CCOC(=O)c1nc2ccc(C(F)(F)F)cc2nc1Oc1cc(OC)c(OC)c(OC)c1`, for which the GI50 was 13.5 µM (inactive) in assay [1]; 53.7 µM (inactive) in assay [2]; 8.17 µM (inactive) in assay [3]; > 100 µM (inactive) in assay [4]; 46.8 µM (inactive) in assay [6]; 78.2 µM (inactive) in assay [7]. Moreover, the GI50 in [19] is 87.7 µM (inactive); in assay [8], > 100 µM (inactive); in assay [9], 35.3 µM (inactive); in assay [10], > 100 µM (inactive); in assay [11], 97.9 µM (inactive); in assay [12], 38.3 µM (inactive). Besides, the GI50 is > 100 µM (inactive) in assay [13]; 28.7 µM (inactive) in [14]; 35.6 µM (inactive) in assay [15]; 97.3 µM (inactive) in assay [16]; 27.8 µM (inactive) in [17]; 55.6 µM (inactive) in assay [20]. For the same compound, the GI50 in [18] was 94.8 µM (inactive).
In the case of `Cc1c([N+](=O)[O-])ccc2c(NCCCN(C)C)ccnc12`, the GI50 in [1] was 26.8 µM (inactive); in assay [2], 19.8 µM (inactive); in assay [3], 30.8 µM (inactive); in [4], 17.9 µM (inactive); in assay [5], 35.6 µM (inactive); in [6], 33 µM (inactive). For the same compound, the GI50 was 14.2 µM (inactive) in assay [7]; 23 µM (inactive) in assay [19]; 15 µM (inactive) in [8]; 17.2 µM (inactive) in assay [9]; 21 µM (inactive) in assay [10]; 29.6 µM (inactive) in assay [11]. Also, the GI50 is 25.2 µM (inactive) in [12]; 67.6 µM (inactive) in assay [13]; 23.9 µM (inactive) in assay [14]; 37 µM (inactive) in assay [15]; 22.2 µM (inactive) in assay [16]; 27.4 µM (inactive) in [20]. Further, the GI50 in assay [18] was 20.7 µM (inactive).
In the case of `CC(C)(C)c1ccc(O)c(Br)c1`, the GI50 in assay [1], in assay [2], in assay [3], in assay [4], in assay [6] and in assay [7] was > 100 µM (inactive) in each case. Moreover, the GI50 in assay [19], in assay [8], in assay [9], in assay [10], in [11] and in assay [12] was > 100 µM (inactive) in each case. The GI50 was > 100 µM (inactive) in [13]; 34.1 µM (inactive) in [14]; > 100 µM (inactive) in [15]; > 100 µM (inactive) in assay [16]; > 100 µM (inactive) in [17]; > 100 µM (inactive) in assay [20]. In assay [18], the GI50 is 95.9 µM (inactive).
`Cc1cn(CCCCCCOC(=O)NC(CCCNC(N)=O)C(=O)O)c(=O)[nH]c1=O` (stereo not drawn): the GI50 in [1], in assay [2], in assay [3], in assay [4], in [5] and in assay [6] was > 100 µM (inactive) in each case. In addition, the GI50 in assay [7], in assay [19], in assay [8], in assay [10], in [11] and in assay [12] was > 100 µM (inactive) in each case. Further, the GI50 in [13], in assay [14], in assay [15], in assay [16], in assay [17] and in [20] was > 100 µM (inactive) each time. The GI50 in assay [18] is > 100 µM (inactive).

These data come from ChEMBL document CHEMBL1201862, “PubChem BioAssay data set” (2004).
